Data as given in patent publication US5726208A, “Heterocyclic tertiary amines” (Adir et Compagnie, priority 1995, dated 1998).

Tested on: D2 receptor
Assay: Binding to cloned D2 receptors ([125I]-iodosulpride displacement)
Details: reference aminotetralines
Experimental: Pharmacological study STUDIES OF THE BINDING OF THE COMPOUNDS OF THE INVENTION TO D2 AND D3 RECEPTORS
The results are expressed in the form of pKi (pKi =-logKi).
The Ki value is derived from the formula Ki =IC50 /(1+L/KD), where L is the concentration of [^125 I]-iodosulpride used in the experiment and Kd its dissociation constant.
The IC50, which represents the concentration that gives a 50% inhibition of the binding of the radioligand, is calculated by non-linear regression (Simplex method).

| Structure (SMILES) | selectivity (D3 versus D2) |
| --- | --- |
| CCCN(CCC)[C@@H]1CCc2c(OC)cccc2[C@@H]1C [(+) UH 232] | 5 |
| CCCN[C@@H]1CCc2c(OC)cccc2[C@@H]1C [(+) AJ 76] | 2 |
